Results on one molecule are retold here after patent US9682033B2, “Methods of treating postherpetic neuralgia with a topical formulation of a spiro-oxindole compound” (Teva Pharmaceuticals International GmbH, priority 2015, dated 2017).

“Also recorded” adds a separate entry of the source.

The subject of series [1] is complete Freund's adjuvant (CFA) model of inflammatory pain. Put plainly: Complete Freund's adjuvant (CFA) model of inflammatory pain. The class given is in vivo. To be noted: rat, topical.
The nature of series [2]: Protein binding in human plasma. The class given is in vitro ADME.
A further series relates to dog hepatocytes. Kind of series: In vitro metabolic stability in hepatocytes (dog). The class given is in vitro ADME. The following applies: ^14C-spiro-oxindole compound. From the text: A total of 8 metabolites were identified in samples (in vitro and in vivo) from rats, dogs, and humans. All metabolites found in humans were also found in the Good Laboratory Practice (GLP) toxicology species, the rat. Following oral administration of spiro-oxindole compound to humans, spiro-oxindole compound and 3 of its metabolites (M1, M5, and M6) were measurable. A similar metabolic profile was observed following topical administration to humans, albeit at much lower plasma concentrations, except metabolite M1 was not detected following human topical administration.

The subject of series [3] is several CYP450 enzymes including CYP3A4. Put plainly: In vitro CYP450 inhibition (human liver microsomes). The class given is in vitro ADME. The text has this: However, the compound is also highly bound to constituents in human plasma, so distribution into hepatocytes may be hindered, reducing the inhibition potential. In vitro data using human cryopreserved hepatocytes have also shown that the spiro-oxindole compound metabolite (M3) is an inhibitor of CYP3A4 and CYP2C19. Therefore, certain medications that undergo major metabolism by CYP3A4 and CYP2C19 are excluded as concomitant medications during this study.
Background: Liver microsomes are vesicles of endoplasmic reticulum, rich in cytochrome P450 enzymes.

Series [4] concerns CYP3A4. Kind of series: In vitro CYP3A4 induction. It counts as in vitro ADME.
Another series in a line: in vivo. On the set-up: species or system rats. The following applies: rat, po. Here is the method:
The no-observed-adverse-effect level (NOAEL) was determined to be 150 mg/kg/day in both males and females. […] The NOAEL for maternal toxicity was 50 mg/kg/day. […] The NOAEL for embryo-fetal toxicity was 150 mg/kg/day.

Series [5] is described as follows: Mouse local lymph node assay. It counts as in vivo.
Series [6] in a line: Phototoxicity assays (in vitro or in vivo).
Series [7] addresses CYP3A4 (Homo sapiens, UniProt P08684). Put plainly: Drug-drug interaction study in healthy subjects: midazolam (CYP3A4 substrate) pharmacokinetics (Biological Example 5). To be noted: human, in vivo. The text has this:
(§1) This was a single center, open-label, 1-sequence drug-drug interaction study in 32 healthy adult male and female subjects. The study consisted of a 28-day screening period, a 10-day inpatient treatment period, and a follow-up visit. Subjects meeting the study inclusion/exclusion requirements were admitted to the clinical research unit on day −1 and were confined until day 10.
(§2) Blood samples were collected for the assessment of the pharmacokinetics of midazolam and omeprazole.
(§3) The primary pharmacokinetic endpoints were the geometric mean ratios (90% confidence intervals [CIs]) for Cmax, AUC0-t, and AUC0-inf for midazolam and omeprazole on day 9 versus day 1.
(§4) Blood samples were collected for the assessment of the pharmacokinetics of the major metabolites of midazolam (1-OH-midazolam) and omeprazole (5-OH-omeprazole), and for the spiro-oxindole compound. Further secondary pharmacokinetic variables included Cmax, tmax, AUC0-t, AUC0-inf, CL/F, λz, t1/2, and % AUCext for 1-OH-midazolam and 5-OH-omeprazole, on days 1 and 9, and Cmax, morning predose concentrations (Ctrough), average plasma concentration over the dosing interval (Cave), and area under the plasma concentration-time curve over the dosing interval (AUC0-τ) were presented for the spiro-oxindole compound.
(§5) Descriptive statistics (n, mean, geometric mean, standard deviation [SD], % CV, median, minimum, and maximum) were used to summarize plasma midazolam, omeprazole and their metabolites, and the spiro-oxindole compound concentration for all subjects overall at each scheduled time point. Descriptive statistics (as noted above) were also used to summarize plasma omeprazole, 5-OH-omeprazole, and the spiro-oxindole compound concentration for all subjects overall by CYP2C19 genotype at each scheduled time point. Pharmacokinetic parameters were derived by noncompartmental analysis. Descriptive statistics (as noted above) were used to summarize the calculated pharmacokinetic parameters for midazolam, omeprazole and their metabolites, and the spiro-oxindole compound by treatment for all subjects. Descriptive statistics (as noted above) were also used to summarize the calculated pharmacokinetic parameters for omeprazole, 5-OH-omeprazole, and the spiro-oxindole compound by treatment and CYP2C19 genotype. Plots of geometric mean and individual plasma concentrations and of select pharmacokinetic parameters for midazolam, omeprazole and their metabolites and the spiro-oxindole compound at select sampling times were provided. Additionally, plots of individual select pharmacokinetic parameters by CYP2C19 phenotype for omeprazole at select time points were provided.

Another series relates to CYP2C19. Kind of series: clinical. To be noted: human, in vivo.
Description: as §1, §2, §3, §4, §5

Sequence of CYP3A4 (Homo sapiens, UniProt P08684) (P08684 whole entry): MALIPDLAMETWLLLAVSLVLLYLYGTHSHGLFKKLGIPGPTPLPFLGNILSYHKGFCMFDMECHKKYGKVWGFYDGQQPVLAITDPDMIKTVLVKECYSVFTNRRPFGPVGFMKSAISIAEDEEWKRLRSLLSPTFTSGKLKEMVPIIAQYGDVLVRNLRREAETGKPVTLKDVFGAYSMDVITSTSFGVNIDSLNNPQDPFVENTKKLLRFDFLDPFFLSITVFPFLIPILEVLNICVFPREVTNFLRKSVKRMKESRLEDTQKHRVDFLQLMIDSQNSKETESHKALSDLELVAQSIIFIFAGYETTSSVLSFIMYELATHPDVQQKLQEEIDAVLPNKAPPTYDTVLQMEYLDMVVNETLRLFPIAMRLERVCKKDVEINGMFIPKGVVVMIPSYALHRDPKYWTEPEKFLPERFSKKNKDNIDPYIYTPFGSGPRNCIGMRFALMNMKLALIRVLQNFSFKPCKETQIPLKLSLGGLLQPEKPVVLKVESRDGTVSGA

For the molecule `O=C1N(Cc2ccc(C(F)(F)F)o2)c2ccccc2[C@]12COc1cc3c(cc12)OCO3` [spiro-oxindole compound, (S)-1′-{[5-(trifluoromethyl)furan-2-yl]methyl}spiro[furo[2,3-f][1,3]benzodioxole-7,3′-indol]-2′(1′H)-one], the “minimum effective dose associated with pain relief” value in series [1] is reported as 2 % (w/w). In addition, the protein bound in series [2] turned out to be 99.4%. Besides, the “in vitro metabolic stability in hepatocytes” value with dog hepatocytes came to 61%. Further, the “inhibition of CYP450 enzymes” value in series [3] is given as “may inhibit several CYP450 enzymes including CYP3A4; also recorded: inhibitor of several CYP450 enzymes”. Besides, the “induction of CYP3A4” value in the series on CYP3A4 [4] is reported as “may also be a strong inducer of CYP3A4 with an activation potency similar to rifampicin”. In “in vivo” (both sexes), this molecule displayed an NOAEL of 150 mg/kg/day. Also, in the series “in vivo” (female, 50 mg/kg/day), the area under the curve AUC(0-t) was 18000 ng·h/mL and the Cmax amounted to 1440 ng/mL. In addition, in the series “in vivo” (female, 150 mg/kg/day), the AUC(0-t) is 41500 ng·h/mL and the highest level (Cmax) was 3380 ng/mL. Also, the NOAEL in “in vivo” (female, NOAEL for embryo-fetal toxicity) amounted to 150 mg/kg/day. For the same molecule, the NOAEL in “in vivo” (female, NOAEL for maternal toxicity) came to 50 mg/kg/day. Besides, in [5], the skin sensitization entry was “not a skin sensitizer”. For the same molecule, in series [6], the phototoxicity potential result is listed as “did not show phototoxicity potential”. Besides, the “effect on midazolam pharmacokinetics (in words)” value at CYP3A4 [7] is given as “no relevant effect on midazolam pharmacokinetics”. In addition, in the series with CYP2C19 (both), the “Geometric LS mean ration (%) (test/reference), omeprazole AUC0-inf” value was found to be 105.751%; the “Geometric LS mean ration (%) (test/reference), omeprazole AUC0-t” value is recorded as 101.553%; the “Geometric LS mean ration (%) (test/reference), omeprazole Cmax” value is on record as 98.939%; the “effect on systemic exposure to 5-OH-omeprazole (in words)” value is “no relevant effect on systemic exposure to 5-OH-omeprazole”. For the same molecule, the “effect on omeprazole pharmacokinetics (in words)” value in the series on CYP2C19 is “no relevant effect on omeprazole pharmacokinetics”.

As usually defined, the NOAEL is the highest tested level that showed no adverse finding. A word on the AUC(0-t): it is the area under the concentration-time curve up to a stated or last time point. Higher therefore signals more exposure. As usually defined, the Cmax is the peak of the concentration-time curve.
